Series [1] has as its target T1, PG0352 (Porphyromonas gingivalis, UniProt Q7MX62).
T1 construct: gene PG_0352; N-terminal His6, residues 31-526 (CBM 31-176 plus sialidase domain 177-523), signal peptide removed, codon-optimized, pQE80L, E. coli BL21-Star (DE3); monomer, ~52 kDa by SEC
Briefly: X-ray crystal structure, […] Å (soaked). The class given is binding. To be noted: 10 mM soak, 20 min; sialidase active site; sialidase inhibitor.

Series [2] addresses T1, PG0352. Briefly: X-ray crystal structure, […] Å (co-crystallized). Type of series: binding. To be noted: 5 mM ligand; bound in CBM cleft, not the active site.
For series [3], the system named is Cc1cc(=O)oc2cc(O[C@@]3(C(=O)O)C[C@H](O)[C@@H](NC(=O)CO)[C@H]([C@H](O)[C@H](O)CO)O3)ccc12. Briefly: purified protein. To be noted: 10 mM sodium citrate, pH 5.0, 37 °C, 1 min, 5 nM enzyme.
The subject of series [4] is CC(=O)N[C@H]1[C@H]([C@H](O)[C@H](O)CO)O[C@@](Oc2ccc3c(C)cc(=O)oc3c2)(C(=O)O)C[C@@H]1O. Briefly: purified protein. To be noted: 10 mM sodium citrate, pH 5.0, 37 °C, 1 min, 5 nM enzyme.
Series [5] deals with T1, PG0352. Briefly: X-ray crystal structure, […] Å (soaked). Type of series: binding. To be noted: 27 mM soak, 60 min; sialidase active site; alpha anomer.

T1 sequence (Q7MX62 entry or part of it): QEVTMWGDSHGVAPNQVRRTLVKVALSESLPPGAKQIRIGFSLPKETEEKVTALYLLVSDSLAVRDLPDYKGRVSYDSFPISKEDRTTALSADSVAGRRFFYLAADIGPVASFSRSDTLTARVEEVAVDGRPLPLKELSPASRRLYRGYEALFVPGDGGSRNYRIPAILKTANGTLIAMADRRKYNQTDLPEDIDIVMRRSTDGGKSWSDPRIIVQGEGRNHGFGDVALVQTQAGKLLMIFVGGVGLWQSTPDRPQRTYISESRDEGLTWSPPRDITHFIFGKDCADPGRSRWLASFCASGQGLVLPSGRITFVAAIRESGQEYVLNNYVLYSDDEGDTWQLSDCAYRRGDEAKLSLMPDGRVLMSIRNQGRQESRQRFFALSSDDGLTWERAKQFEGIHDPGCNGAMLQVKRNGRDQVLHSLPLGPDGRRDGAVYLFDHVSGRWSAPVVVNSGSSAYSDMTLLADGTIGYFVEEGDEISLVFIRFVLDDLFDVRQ

On to `CC(=O)N[C@H]1[C@H]([C@H](O)[C@H](O)CO)OC(C(=O)O)=C[C@@H]1O` [DANA], for which the “X-ray crystal structure, 2.14 Å (soaked)” value in series [1] is given as “DANA binds within the sialidase active site in a similar conformation”. As for `OCC1(O)OC[C@@H](O)[C@@H](O)[C@@H]1O` (some centres unmarked) [fructose], the “X-ray crystal structure, 2.29 Å (co-crystallized)” value in series [2] is “we co-crystallized PG0352 with fructose and determined the structure of the complex”.

Broadly, the Km is the substrate concentration at which the rate is half of its maximum. For the compound PG0352 (Porphyromonas gingivalis W83), the Km in series [3] was 81.65 ± 20.56 µM; in series [4], 39.31 ± 6.540 µM. `CC(=O)N[C@H]1[C@H]([C@H](O)[C@H](O)CO)OC(O)(C(=O)O)C[C@@H]1O` (some centres unmarked) [Neu5Ac]: the “X-ray crystal structure, 1.93 Å (soaked)” value in series [5] is “Clear electron density was visible for Neu5Ac bound in its alpha anomeric form”.

The record behind these values is publication PMC10553830, “Functional and structural analyses reveal that a dual domain sialidase protects bacteria from complement killing through desialylation of complement factors” (PLOS Pathogens, 2023).
